Test results as given in patent US9868715B2 (THE BOARD OF REGENTS OF THE UNIVERSITY OF TEXAS SYSTEMS, priority 2014, dated 2018).
Entries after “also recorded” stand apart in the source; their conditions may differ.

Key:
[1] = test system: C57BL/6 mice with cerulein-induced CP; assay: Chronic pancreatitis (CP) animal model, fibronectin IHC; assay type: in vivo; details: 0.5 mg/kg daily oral gavage, 3 weeks
Description: In order to evaluate the anti-fibrotic effect of these new compounds as a proof-of-concept, the compounds were tested in a preclinical animal model of CP. CP was induced in mice using the well-established model of repeated cerulean (CR) injections (Lerch and Gorelick 2013, Gastroenterology 144:1180; Aghdassi et al. 2011, Fibrogenesis Tissue Repair 4:26). […] After four weeks, the pancreata were processed and stained for fibronectin, which is a major component of the ECM. […] ImageJ analysis of the slides quantified the significant decrease in fibrosis (p<0.001) (FIG. 4E).
Chronic pancreatitis (CP) animal model. Animal experiments were conducted under an Institutional Animal Care and Use Committee-approved protocol. CP was induced in C57BL/6 mice using supraoptimal pancreatic stimulation with cerulein (CR), a cholecystokinin analogue (Bachem, Torrance, Calif.). CP (50 μg CR/kg mouse weight) was administered via intraperitoneal route hourly for 5 h for 3 d/week for a total of 4 weeks. Control mice received phosphate buffered saline (PBS) injections following the same schedule. […] At the end of Week 4, the mice were anesthestized with isoflurane and sacrificed per protocol. The pancreata were quickly harvested and processed.
Immunohistochemistry (IHC) and image analysis. Pancreata were formalin-fixed and paraffin-embedded. Prior to staining, sections (5 μm) were deparaffinized with xylene, dehydrated with ethanol, and subjected to heat-mediated antigen retrieval (DAKO, Carpinteria, Calif.) to optimize antigen immunoreactivity. Fibronectin antibody (1:600; Santa Cruz Biotechnology, Dallas, Tex.), and biotinylated anti-goat IgG (1:400; Vector Laboratories Inc., Burlingame, Calif.) were used. […] The percent area of brown fibronectin staining was quantified using the Image Processing and Analysis in Java (ImageJ) 1.46r software (NIH, Bethesda, Md.) and a color deconvolution plug-in (Ruifrok and Johnston, Anal Quant Cytol Histol 2001, 23:291; Schneider et al., Nat Methods 2012, 9:671).

[2] = test system: transformed PSC (human pancreatic stellate cells); assay: PSC apoptosis, Cell Death Detection ELISA PLUS assay; assay type: cell-based; details: 14 h; for EC50: mean±SEM of at least three experiments
Description: These two representative analogues were also investigated to determine whether the growth inhibition induced by compounds 23 and 24 in PSC was attributed to apoptosis. Apoptosis was determined using the Cell Death Detection ELISA^PLUS assay. This sandwich-enzyme-immunoassay involved antibodies binding to cytoplasmic nucleosomes, which were specific to the process of apoptosis rather than necrosis. […] Next, the dose-response curve was generated (FIG. 3B). The EC50 represented the concentration at which the compound yielded half of the maximal amount of cell death. […] The capacity of the compounds to induce cell death in activated PSC would most likely translate into reduced fibrosis in CP. […] Under an IRB-approved tissue protocol, discarded human resected pancreatic tissue (500 mm^3) was attained fresh from the operating room at the University of Texas Medical Branch. The tissue was minced and plated on a collagen-coated flask (15 μg/mL, Invitrogen) with DMEM (VWR; Radnor, Pa.) supplemented with penicillin 200 U/mL, streptomycin 200 μg/mL, amphotericin B 0.25 μg/mL and gentimicin 50 μg/mL (Invitrogen, Carlsbad Calif.), 10% fetal bovine serum (Lonza, Walkersville, Md.), 1% insulin-transferrin, selenium-ethanolamine (Gibco, Grand Island, N.Y.), and 1% non-essential amino acids (Sigma-Aldrich, St. Louis, Mo.). The human PSC were isolated by the outgrowth method.^41-43 The purity of PSC culture was confirmed by immunohistochemical staining for vimentin, α-smooth muscle actin, glial fibrillar acidic protein, or Oil red O staining. Primary PSC were transformed and immortalized for use in experiments using lentiviral vectors containing SV40 Large T antigen and human telomerase (plasmid #12245 and 12246; Addgene, Cambridge, Mass.). Cultures were maintained in DMEM with 10% FBS, at 37° C. in a humidified […] atmosphere. Cell death assay. Transformed PSC (8×10^3) were plated in 96-well plates in triplicate. […] The Cell Death Detection ELISA^PLUS assay (Roche Applied Science, Indianapolis, Ind.) was used and protocol followed (Version 11.0). Absorbance was measured at 405 nm, using the EL×800 Automated Microplate Reader (Bio-TEK Instruments, Inc., Winooski, Vt.). Statistical analysis. Dose-response curves were generated by plotting fluorescence or absorbance versus log (compound concentration). A best-fit curve was created using nonlinear regression, and the IC50 or EC50 determined from the graph (GraphPad Prism 5; GraphPad Software Inc., La Jolla, Calif.). To analyze continuos variables, unpaired student t-tests and one-way ANOVA with Tukey-Kramer multiple comparisons post-test (GraphPad Prism 5). Significance was set at p<0.05.

[3] = Aqueous solubility by HPLC analysis method; assay type: physicochemical; details: in the form of HCl salt

SMILES	Pancreatic fibrosis in CP model (fibronectin stain), result in words [1]	EC50 [2]	Aqueous solubility compared with apigenin, result in words [3]	Aqueous solubility, saturated concentration [3]	Concentrations inducing stellate cell toxicity [2]
O=c1cc(-c2ccc(O)cc2)oc2cc(O)cc(O)c12 [Apigenin, 4′,5,7-trihydroxyflavone, reference compound]	significantly decreased the stromal fibrosis of CP; also recorded: significantly reduced the fibrotic response; also recorded: significant efficacy to reduce pancreatic fibrosis	24.5 ± 2.5 µM			
COc1cc(OC)c2c(=O)cc(-c3ccc(OCC(O)CN4CCCCC4)cc3)oc2c1 (stereo not drawn) [Compound 24, 2-(4-(2-Hydroxy-3-piperidin-1-yl-propoxy)phenyl)-5,7-dimethoxy-chromen-4-one]	as efficacious as apigenin in reducing pancreatic fibrosis; also recorded: significantly decreased the stromal fibrosis of CP; also recorded: significantly reduced the fibrotic response; also recorded: significant efficacy to reduce pancreatic fibrosis	35.2 ± 5.5 µM	significantly improved solubility	84.1 mg/mL	greater than 25 μM
COc1cc(OC)c2c(=O)cc(-c3ccc(OCC4CO4)cc3)oc2c1 (stereo not drawn) [Compound 23, 5,7-Dimethoxy-2-(4-oxiranylmethoxyphenyl)-chromen-4-one]	as efficacious as apigenin in reducing pancreatic fibrosis; also recorded: significantly decreased the stromal fibrosis of CP; also recorded: significantly reduced the fibrotic response; also recorded: significant efficacy to reduce pancreatic fibrosis	9.6 ± 1.8 µM			
